Patent US11648220B2, “Methods for the treatment of myeloid derived suppressor cells related disorders” (The Rockefeller University, priority 2016, dated 2023)

Experiments:
[1] = test system: myeloid-derived suppressor cells (MDSCs) in B16F10 melanoma; assay: tumor-infiltrating MDSCs in B16F10 tumor-bearing mice (flow cytometry, Gr1 immunohistochemistry); assay type: in vivo
Procedure: (§1) All mouse studies were conducted according to a protocol approved by the Institutional Animal Care and Use Committee at the Rockefeller University. C57BL/6 mice were obtained from the Jackson Laboratory. For experiments testing the effect of LXR agonists on tumor growth, mice were assigned to a control chow or a chow supplemented with compound 682 (Sigma-Aldrich) or compound 705 (Rgenix, Inc.) at 50, or 100 mg/kg/day, as indicated. For combination drug regimens, mice were fed a compound 705-supplemented diet and co-treated with anti-PD-1 antibody (clone RMP1-14 BioXcell), 10 mg/kg by i.p. injection every 3 days for 3 total doses starting on the day of tumor injection. All drug-formulated diets were prepared by Research Diets.
All mouse studies were conducted according to a protocol approved by the Institutional Animal Care and Use Committee at the Rockefeller University. […]
(§2) At the indicated day, tumors were isolated from euthanized mice and minced into small (˜1 mm^2) pieces with a scalpel and then enzymatically dissociated. […] After staining, cells were subsequently analyzed by flow cytometry using an LSRII flow cytometer (BD Biosciences). Data was analyzed using FlowJo software. […]
At the indicated day, blood was drawn from mice and treated with RBC Lysis Buffer (Sigma) followed by filtration through a […] filter (Corning Inc) to obtain a single cell suspension of lymphocytes. […] After staining, cells were subsequently analyzed by flow cytometry using an LSRII flow cytometer (BD Biosciences). Data was analyzed using FlowJo software.
For MDSC quantification studies, frozen tumor sections (no fixation) were stained with an antibody against Gr1 (1:1000; BioXcell). […]

LXRβ = target: T1, LXRβ (Homo sapiens, UniProt P55055); assay: ligand sensing assay (LiSA), LXRβ; assay type: biochemical
T1 sequence (P55055 1-460): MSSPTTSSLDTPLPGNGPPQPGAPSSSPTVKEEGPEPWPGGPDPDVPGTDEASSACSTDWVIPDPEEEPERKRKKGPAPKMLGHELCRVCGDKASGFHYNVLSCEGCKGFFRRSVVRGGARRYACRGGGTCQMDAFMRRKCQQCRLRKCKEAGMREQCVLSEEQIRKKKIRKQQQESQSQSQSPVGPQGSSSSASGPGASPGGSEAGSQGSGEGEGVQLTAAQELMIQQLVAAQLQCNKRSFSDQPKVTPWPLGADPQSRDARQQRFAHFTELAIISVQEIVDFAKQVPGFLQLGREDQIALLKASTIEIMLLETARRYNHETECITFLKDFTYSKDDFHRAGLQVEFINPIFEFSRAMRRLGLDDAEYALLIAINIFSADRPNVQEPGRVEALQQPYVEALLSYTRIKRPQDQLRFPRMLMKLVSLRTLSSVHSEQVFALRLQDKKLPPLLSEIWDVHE
Excerpt: As used herein, reference to the activity of an LXR agonist at LXRα and LXRβ refer to the activity as measured using the ligand sensing assay (LiSA) described in Spencer et al. Journal of Medicinal Chemistry 2001, 44, 886-897, incorporated herein by reference. […] For example, the methods of the invention can be performed using an LXRβ agonist having activity for LXRβ that is at least 3-fold greater than the activity of the agonist for LXRα, or having activity for LXRβ that is at least 10-fold greater than the activity of the agonist for LXRα, or having activity for LXRβ that is at least 100-fold greater than the activity of said agonist for LXRα, or having activity for LXRβ that is at least within 3-fold of the activity of the agonist for LXRα. The term “greater activity” in the LiSA assay refers to a lower EC50.

[2] = test system: activated CD8+ T-cells in B16F10 melanoma; assay: tumor-infiltrating activated CD8+ T-cells in B16F10 tumor-bearing mice (flow cytometry); assay type: in vivo; conditions: supplemented diet 100 mg/kg/day, tumors isolated day 12-14
Procedure: All mouse studies were conducted according to a protocol approved by the Institutional Animal Care and Use Committee at the Rockefeller University. C57BL/6 (WT); and Pmel (B6.Cg-Thy1^a/Cy Tg(TcraTcrb)8Rest/J mice were obtained from the Jackson Laboratory. To determine the effect of LXR agonists on in vivo primary tumor growth, mice were injected with 5×10^4 B16F10 melanoma cells. For all tumor growth experiments, cells (suspension in […] of PBS) were mixed 1:1 with matrigel (356231, BD Biosciences, Bedford, Mass.) and subcutaneously injected into the lower flank of 6-8 week-old sex-matched mice. Following formation of tumors, mice were assigned to the following treatment groups as described below. All drug-formulated diets were prepared by Research Diets. […]
as §2
After tumor cell injection, animals were palpated every two days for tumor formation. […] Tumor dimensions were measured using digital calipers, and tumor volume was calculated as (small diameter)^2×(large diameter)/2. […]

B16F10 melanoma [3] = assay: B16F10 tumors, compound 705 plus anti-PD-1 antibody; assay type: in vivo, mice; conditions: B16F10, diet 50 mg/kg/day plus anti-PD-1 antibody 10 mg/kg I.P. every 3 days
Procedure: as §1, with “Diets. […]” for “Diets.”
as §2
After tumor cell injection, animals were treated with anti-PD-1 antibody at a dose of 10 mg/kg (clone RMP1-14; BioXcell), by intraperitoneal (I.P.) injection every 3 days for 3 total doses starting on the day of tumor injection. […] Tumor dimensions were measured using digital calipers, and tumor volume was calculated as (small diameter)^2×(large diameter)/2. […]

B16F10 melanoma [4] = assay: B16F10 tumors, compound 705 plus adoptive transfer of Pmel CD8+ T-cells (survival); assay type: in vivo, mice; conditions: B16F10, diet 50 mg/kg/day plus 2×10^6 Pmel CD8+ T-cells
Procedure: All mouse studies were conducted according to a protocol approved by the Institutional Animal Care and Use Committee at the Rockefeller University. C57BL/6 (WT); and Pmel (B6.Cg-Thy1^a/Cy Tg(TcraTcrb)8Rest/J mice were obtained from the Jackson Laboratory. To determine the effect of LXR agonists on in vivo primary tumor growth, mice were injected with 5×10^4 B16F10 melanoma cells. For all tumor growth experiments, cells (suspension in […] of PBS) were mixed 1:1 with matrigel (356231, BD Biosciences, Bedford, Mass.) and subcutaneously injected into the lower flank of 6-8 week-old sex-matched mice. Following formation of tumors, mice were assigned to the following treatment groups as described below. All drug-formulated diets were prepared by Research Diets. After the indicated number of days, either peripheral blood or tumors were isolated to obtain tumor-infiltrating lymphocytes for flow-cytometry analysis as described below.
After tumor cell injection, tumor volumes were measured every two days. Upon tumors measuring 90-100 mm^3 in volume (day 6-7), mice were randomly assigned to a control diet treatment or a COMPOUND 705-supplemented diet (50 mg/kg/day; Rgenix).
The following day, 2×10^6 CD8+ T-cells from Pmel mice were adoptively transferred via retro-orbital injection into both control and COMPOUND 705 treated mice. […]

[5] = test system: CD8+ T-cells co-cultured with MDSCs; assay: T-cell suppression assay; assay type: cell-based; conditions: 24 hours co-culture with MDSCs from treated tumor-bearing mice
Procedure: CD8+ cells were purified from single cell suspensions from spleens of mice using the MACS CD8+ T-cell isolation kit (Miltenyi Biotech) according to manufacturer's protocol. Cells were then labeled with cell tracker reagent (BV). The labeled CD8+ T cells were plated on 96-well plates coated with 1 mg/ml anti-CD3 and anti-CD28 beads (Dynabeads® Mouse T-Activator CD3/CD28 for T-Cell Expansion and Activation; Gibco). Recombinant IL-2 (Gibco) was then added to the wells according to manufacturer's protocol. MDSC were then isolated using the MACS Myeloid-Derived Suppressor Cell Isolation Kit (Miltenyi Biotech) according to manufacturer's protocol and subsequently added in the indicated MDSC:T-cell ratios. Cells were incubated at 37° C. for 24-36 hours. T-cell activation was measured by flow cytometry by assessing the percent of T-cells positive for IFNγ staining with diluted BV dye.

MDSCs = assay: MDSC abundance assay; assay type: cell-based, mice; conditions: 1 μM, 3 hours
Procedure: MDSCs were isolated from the spleens of tumor-bearing wild-type or ApoE−/− mice, as indicated, using the MACS Myeloid-Derived Suppressor Cell Isolation Kit (Miltenyi Biotech) according to manufacturer's protocol. MDSCs were then incubated in RPMI (Sigma) supplemented with 10% FBS and either COMPOUND 705 (dissolved in 2% DMSO at the indicated concentration) or control (2% DMSO) and subsequently incubated at 37° C. for the indicated time. Abundance was assessed by quantifying the percent of live cells using propidium Iodide staining. […]

LXRα = target: T2, LXRα (Homo sapiens, UniProt Q13133); conditions: cited from earlier work
T2 sequence (Q13133 1-447): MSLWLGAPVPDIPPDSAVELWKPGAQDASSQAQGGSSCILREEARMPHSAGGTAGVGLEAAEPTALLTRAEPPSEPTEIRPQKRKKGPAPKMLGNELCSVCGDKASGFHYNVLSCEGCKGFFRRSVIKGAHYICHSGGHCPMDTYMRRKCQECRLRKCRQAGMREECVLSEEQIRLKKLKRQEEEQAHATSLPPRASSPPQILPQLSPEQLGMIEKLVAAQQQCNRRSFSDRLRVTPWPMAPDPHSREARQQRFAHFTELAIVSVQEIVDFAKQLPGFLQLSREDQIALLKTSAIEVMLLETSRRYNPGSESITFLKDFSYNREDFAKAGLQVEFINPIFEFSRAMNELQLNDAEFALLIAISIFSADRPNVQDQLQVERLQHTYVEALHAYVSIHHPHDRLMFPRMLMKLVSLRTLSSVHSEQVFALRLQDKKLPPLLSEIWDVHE

[6] = daily I.P. injection 2 mg, day 12-14

With `O=C(O)Cc1cccc(OCCCN(Cc2cccc(C(F)(F)F)c2Cl)CC(c2ccccc2)c2ccccc2)c1` [Compound 682] the “number of tumor-infiltrating myeloid-derived suppressor cells (MDSCs)” value ([1]; supplemented diet 100 mg/kg/day, tumors isolated day 12-14) was “reduces the number of tumor-infiltrating myeloid-derived suppressor cells”, the “fold greater activity for LXRβ compared to LXRα” value (LXRβ) was “approximately 6 fold” and the “number of tumor-infiltrating activated CD8+ T-cells” value [2] was “increases the number of tumor-infiltrating activated CD8+ T-cells”.

For `CC(CCOc1cccc(CC(=O)O)c1)N(Cc1cccc(C(F)(F)F)c1Cl)CC(c1ccccc1)c1ccccc1` (stereo not shown) [Compound 705], the “anti-tumor T-cell response induced with anti-PD-1 antibody therapy” value (B16F10 melanoma [3]) was “enhances the anti-tumor T-cell response”, the “number of granulocytic MDSCs (G-MDSC)” value [1, 6] was “reduces the number” and the “number of monocytic MDSCs (M-MDSC)” value [1, 6] was “reduces the number”. For the same compound, the “anti-tumor activity of adoptively transferred melanoma-targeting CD8+ T-cells” value (B16F10 melanoma [4]) was “enhances the anti-tumor activity”, the “MDSC-mediated suppression of CD8+ T-cells” value [5] was “reverses MDSC-mediated suppression of CD8+ T-cells” and the “abundance of MDSCs in vitro” value (MDSCs) was “reduces abundance of MDSCs in vitro”.

For `CC(C)(O)c1cn(-c2ccc(-c3cccc(S(C)(=O)=O)c3)cc2)c(C(C)(C)c2ccccc2Cl)n1` [Compound 718], the EC50 (LXRα) is given as 101 to 1000 nM.
